Assay [1] concerns lignée MCF-7 ATCC HTB. The assay is described as follows: MTT cytotoxicity test (cell viability). Type of assay: cell-based, humaines. The settings on record: MCF7 ATCC cells; 5 days incubation with compound; MTT readout at 550 nm; calculated from points of Figures 1A, 1B and 2 between 5.10^-7 and 10^-5 moles/l; read-out: IC50 (µmole) MCF7 ATCC. An excerpt: (§1) L'évaluation de la cytotoxicité des isomères "trans" et "cis" du 1-[4-(2-diméthylaminoéthoxy) phényl]-1-(4-hydroxyphényl)-2-ferrocényl-1-butène a fait l'objet de tests sur des lignées de cellules humaines dérivées d'une effusion pleurale d'un adénocarcinome mammaire (lignée MCF-7 ATCC HTB) ainsi que de l'un de ses variants (lignée MCF-7P).
(§2) Ces cellules ont été préalablement cultivées dans du milieu Dulbecco MEM additionné de 10% de sérum de veau foetal et en atmosphère humide (90% d'humidité relative) comprenant 5% de CO2. En phase exponentielle de croissance, ces cellules ont été trypsinées et repiquées dans des plaques de 24 puits de 1 ml à raison de 2.10^5 cellules par puits.
(§3) Après 3 jours d'incubation, les composés à tester ont été ajoutés aux doses appropriées et les plaques ont été mises à incuber pendant 5 jours.
(§4) A l'issue de cette incubation, la viabilité cellulaire des cultures a été déterminée à l'aide du test dit "MTT" consistant à ajouter dans chaque puits 20 µl d'une solution contenant 5 mg de bromure de (diméthyl-4,5-thiazol-2-yl)diphényl-2,5-tétrazolium (MTT) dans 1 ml de tampon PBS, et à laisser incuber les plaques pendant 1 heure à 37°C dans des conditions atmosphériques identiques à celles définies ci-dessus. Le MTT est métabolisé dans les cellules vivantes en un composé bleu insoluble (formazan).
(§5) A l'issue de cette incubation, les puits sont lavés à l'aide de PBS pour éliminer le MTT et les cristaux résiduels de formazan sont repris dans 1 ml de DMSO. La concentration en formazan pour chaque puits est lue par photométrie à une longueur d'onde de 550 nm et comparée à un témoin correspondant à du milieu incubé en présence de MTT mais en l'absence de cellules.

Assay [2] has as its system lignée MCF-7P. Description: MTT cytotoxicity test (cell viability). Type of assay: cell-based, humaines. The settings on record: MCF7-P variant cells; 5 days incubation with compound; MTT readout at 550 nm; calculated from points of Figures 1A, 1B and 2 between 5.10^-7 and 10^-5 moles/l; read-out: IC50 (µmole) MCF7-P.
Source text: as §1, §2, §3, §4, §5

These results are taken from patent publication EP0804445B1, “METALLOCENIC […] DERIVATIVES, METHODS FOR THEIR PREPARATION AND PHARMACEUTICAL COMPOSITIONS CONTAINING SAME” (Modelisation et Mise au Point de Molecules Medicanales - …, priority 1994, dated 1996).

By IC50 is commonly meant the point on the concentration scale where inhibition reaches its midpoint. In the case of `CCC(=C(c1ccc(O)cc1)c1ccc(OCCN(C)C)cc1)[c-]1cccc1.[Fe+2].c1cc[cH-]c1` [Dérivé "trans", 1-[4-(2-diméthylaminoéthoxy)phényl]-1-(4-hydroxyphényl)-2-ferrocényl-1-butène], the IC50 in assay [1] was 4.9 µM; in assay [2], 2 µM.

`CCC(=C(c1ccc(O)cc1)c1ccc(OCCN(C)C)cc1)[c-]1cccc1.[Fe+2].c1cc[cH-]c1` [Dérivé "cis", 1-[4-(2-diméthylaminoéthoxy)phényl]-1-(4-hydroxyphényl)-2-ferrocényl-1-butène]: the IC50 in assay [1] was 3.4 µM; in assay [2], 5.6 µM.
